Test results as given in patent US8193149B2, “Use of Peptide YY, alone or in combination with glucagon-like peptide, for use in medicine” (mondoBIOTECH Laboratories AG, priority 2007, dated 2012).
No end group written: not given here.

Experiments:
[1] = test system: Primary Human endothelial cells (HUVEC); experiment: Endothelial cell migration assay; format: cell-based; conditions: single peptide, 10 micrograms per ml, 22 hours
[2] = test system: spleen cells; experiment: Th1/Th2 cytokine profiling assay; format: cell-based, Balb/c mice; conditions: 10 micrograms per ml; Ovalbumin restimulation, 72 hours
[3] = test system: HUVEC; experiment: Endothelial tube formation assay; format: cell-based, human; conditions: single peptide, 10 micrograms per ml, 20 hours
Procedure: The endothelial tube formation assay is based on the ability of endothelial cells to form three-dimensional capillary-like tubular structures when cultured on a gel of basement membrane extract. […] Pre-labeled HUVEC with Calcein AM were seeded in a 96-well culture plate coated with extracellular metrix (Chemicon international Cat. ECM625) and treated with test peptides—10 micrograms per ml—in full growth medium. Positive control was vehicle only. The endothelial cells were allowed to form tubes foe 20 hours and were then examined under an inverted fluorescent microscope. Duplicate wells for each treatment were photographed and quantitatevily analyzed for an average tubule length using image analysis software ImageProPlus. Raw data were expressed as average tubule lenghs in pixels ± standard deviation. Statistic p values were computed using the Student's t-test.

[4] = test system: HCMV strain AD169; experiment: HCMV plaque formation assay in MRC-5 cells; format: cell-based
[5] = test system: hepatitis B virus (HBV) ayw strain in HepG2-2.2.15 cells; experiment: HBV experimental assay system, secreted HBV DNA by TaqMan PCR; format: cell-based; conditions: single peptide, 10 micrograms per ml; HepG2-2.2.15, six days
Procedure: HepG2-2.2.15 is a stable cell line containing the hepatitis B virus (HBV) ayw strain genome (ATCC Cat. No. CRL-11997). […] After 16-24 hours the confluent monolayer of HepG2-2.2.15 cells was washed and the medium was replaced with complete medium containing test peptides—10 micrograms per ml—in duplicate. […] Three days later the culture medium was replaced with fresh medium containing the peptides. Six days following the initial administration of the peptides, the cell culture supernatants was collected, treated with pronase and DNAse and then used in a real-time quantitative TaqMan PCR assay. The PCR-amplified HBV DNA was detected in real-time by monitoring increases in fluorescence signals that result from the exonucleolytic degradation of a quenched fluorescence probe molecule that hybridizes to the amplified HBV DNA. For each PCR amplification, a standard curve was simultaneously generated using dilutions of purified HBV DNA. Antiviral activity was calculated from the reduction in HBV DNA levels (% virus control).

[6] = test system: HIV-1IIIB; experiment: HIV-1 antiviral assay in CEM-SS cells (MTS readout); format: cell-based

In the case of “His-Asp-Glu-Phe-Glu-Arg-His-Ala-Glu-Gly-Thr-Phe-Thr-Ser-Asp-Val-Ser-Ser-Tyr-Leu-Glu-Gly-Gln-Ala-Ala-Lys-Glu-Phe-Ile-Ala-Trp-Leu-Val-Lys-Gly-Arg-Gly-OH (HDEFERHAEGTFTSDVSSYLEGQAAKEFIAWLVKGRG-OH; listed as Homo sapiens) [Peptide 2, commercially available known peptide]”, the “inhibition of the migration of human endothelial cells” value [1] was 65%, the “IFNγ spleen cells; TH1 response (% of control)” value [2] was 78.0 % of control and the “IL-2 spleen cells (% of control)” value [2] was 163.4 % of control. For the same compound, the “IL-4 spleen cells; TH2 response (% of control)” value [2] was 135.2 % of control, the “IL-5 spleen cells; TH2 response (% of control)” value [2] was 121.7 % of control and the “TNF-a spleen cells; TH1 response (% of control)” value [2] was 145.1 % of control. For the same compound, the “inhibition of the tube formation of human endothelial cells” value [3] was 25%, the “inhibition of HCMV plaque formation as compared to the virus control” value ([4]; 10 micrograms per ml, 7-10 days) was “did not inhibit” and the “inhibition of HBV replication as compared to the virus control infection” value [5] was 62.3%.
With `Nc1nc(O)c2ncn(COC(CO)CO)c2n1` [Ganciclovir, reference compound] the “antiviral activity of positive control compound (HCMV)” value ([4]; HCMV AD169) was “expected levels of antiviral activity”.
With `Cc1cn([C@H]2C[C@H](N=[N+]=[N-])[C@@H](CO)O2)c(=O)[nH]c1=O` [AZT] the “antiviral activity of positive control compounds (HIV-1)” value [6] was “expected levels of antiviral activity”.
With `CC(C)(C)NC(=O)[C@@H]1CN(Cc2cccnc2)CCN1C[C@@H](O)C[C@@H](Cc1ccccc1)C(=O)N[C@H]1c2ccccc2C[C@H]1O` [indinavir] the “antiviral activity of positive control compounds (HIV-1)” value [6] was “expected levels of antiviral activity”.
